Results from the supplement of paper PMC10307832.

Tests used:
Experiment in all cases: relative viability (nuclei count vs DMSO), 5 days (fraction); higher = more cells survive
Etoposide + Tozasertib = compound: COc1cc([C@@H]2c3cc4c(cc3[C@@H](O[C@@H]3O[C@@H]5CO[C@@H](C)O[C@H]5[C@H](O)[C@H]3O)[C@H]3COC(=O)[C@H]23)OCO4)cc(OC)c1O [Etoposide] + Cc1cc(Nc2cc(N3CCN(C)CC3)nc(Sc3ccc(NC(=O)C4CC4)cc3)n2)n[nH]1 [Tozasertib] (partner 0.1 µM)
Procedure, shortened: (§1)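 Values are medians from duplicate plates. Each reflects relative viability, defined as the nuclei count of treated wells over that of vehicle wells. Lung cancer cell lines in 1536-well plates were pin-tool dosed one day after seeding with one drug alone or with a fixed anchor-drug dose plus five library-drug doses (not always all listed) in √10 steps, then fixed, stained and imaged at 4× after 5 days.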

Etoposide + Pemetrexed = compound: COc1cc([C@@H]2c3cc4c(cc3[C@@H](O[C@@H]3O[C@@H]5CO[C@@H](C)O[C@H]5[C@H](O)[C@H]3O)[C@H]3COC(=O)[C@H]23)OCO4)cc(OC)c1O [Etoposide] + Nc1nc2[nH]cc(CCc3ccc(C(=O)N[C@@H](CCC(=O)O)C(=O)O)cc3)c2c(=O)[nH]1 [Pemetrexed] (partner 0.2 µM)
Procedure, shortened: as §1

Bleomycin + Dasatinib = compound: CC1=C(N=C(N=C1N)[C@H](CC(=O)N)NC[C@@H](C(=O)N)N)C(=O)N[C@@H]([C@H](C2=CN=CN2)OC3C(C(C(C(O3)CO)O)O)OC4C(C(C(C(O4)CO)O)OC(=O)N)O)C(=O)N[C@H](C)[C@H]([C@H](C)C(=O)N[C@@H]([C@@H](C)O)C(=O)NCCC5=NC(=CS5)C6=NC(=CS6)C(=O)NCCC[S+](C)C)O [Bleomycin] + Cc1nc(Nc2ncc(C(=O)Nc3c(C)cccc3Cl)s2)cc(N2CCN(CCO)CC2)n1 [Dasatinib] (partner 0.075 µM); conditions: main component drawn
Procedure, shortened: as §1

Etoposide + Bortezomib = compound: COc1cc([C@@H]2c3cc4c(cc3[C@@H](O[C@@H]3O[C@@H]5CO[C@@H](C)O[C@H]5[C@H](O)[C@H]3O)[C@H]3COC(=O)[C@H]23)OCO4)cc(OC)c1O [Etoposide] + CC(C)C[C@H](NC(=O)[C@H](Cc1ccccc1)NC(=O)c1cnccn1)B(O)O [Bortezomib] (partner 0.002 µM)
Procedure, shortened: as §1

Cell Line	relative viability (Etoposide + Tozasertib; first compound 0.01 µM)	relative viability (Etoposide + Tozasertib; first compound 0.03162 µM)	relative viability (Etoposide + Tozasertib; first compound 0.1 µM)	relative viability (Etoposide + Tozasertib; first compound 0.3162 µM)	relative viability (Etoposide + Tozasertib; first compound 1 µM)	relative viability (Etoposide + Pemetrexed; first compound 0.01 µM)	relative viability (Etoposide + Pemetrexed; first compound 0.03162 µM)	relative viability (Etoposide + Pemetrexed; first compound 0.1 µM)	relative viability (Etoposide + Pemetrexed; first compound 0.3162 µM)	relative viability (Etoposide + Pemetrexed; first compound 1 µM)	relative viability (Bleomycin + Dasatinib; first compound 0.01 µM)	relative viability (Bleomycin + Dasatinib; first compound 0.03162 µM)	relative viability (Bleomycin + Dasatinib; first compound 0.1 µM)	relative viability (Bleomycin + Dasatinib; first compound 0.3162 µM)	relative viability (Bleomycin + Dasatinib; first compound 1 µM)	relative viability (Etoposide + Bortezomib; first compound 0.01 µM)	relative viability (Etoposide + Bortezomib; first compound 0.03162 µM)	relative viability (Etoposide + Bortezomib; first compound 0.1 µM)	relative viability (Etoposide + Bortezomib; first compound 0.3162 µM)	relative viability (Etoposide + Bortezomib; first compound 1 µM)
201T	0.824	0.995	0.886	0.709	0.465	0.325	0.343	0.355	0.318	0.32	0.527	0.529	0.546	0.444	0.463	1.04	1.1	1.01	1.04	0.765
A-427	0.213	0.224	0.219	0.165	0.147	0.999	1.06	0.778	0.607	0.305	0.53	0.56	0.496	0.137	0.144	0.92	1.02	0.726	0.819	0.244
ABC-1	0.176	0.202	0.186	0.199	0.195						0.516	0.53	0.61	0.31	0.285	0.301	0.33	0.261	0.296	0.237
BEN	0.463	0.503		0.483	0.481	0.87	1.05		0.727	0.669	0.327	0.342	0.341	0.273	0.249	0.728	0.869		0.565	0.6
CAL-12T	0.256	0.297	0.408	0.264	0.28	1.02	1.29	1.07	0.963	0.484	0.246	0.259	0.164	0.0878	0.12	1.07	1.08	0.846	0.648	0.385
COR-L23	0.189	0.236	0.262	0.145	0.109	0.198	0.207	0.207	0.214	0.189	0.394	0.276	0.215	0.0981	0.0987	0.962	0.937	0.804	0.693	0.342
COR-L 105	0.385	0.345	0.291	0.353	0.366	1.03	1.02	1.27	0.836	0.844	0.325	0.35	0.307	0.238	0.215	0.613	1.23	0.502	0.7	0.495
Calu-6																1.06	0.973	1.03	0.693	0.405
ChaGo-K-1	0.192	0.212	0.211	0.181	0.187	0.267	0.261	0.259	0.261	0.218	0.529	0.552	0.533	0.246	0.264	1.16	0.94	0.679	0.337	0.282
EBC-1																0.528	0.503	0.55	0.581	0.379
EKVX	0.412	0.355	0.312	0.326	0.221	0.351	0.443	0.344	0.285	0.248	0.56	0.435	0.502	0.276	0.26	1	1.18	0.4	0.419	0.372
EMC-BAC-2	0.251	0.276	0.288	0.221	0.203	0.442	0.466	0.476	0.37	0.284	0.293	0.277	0.259	0.144	0.115	1.07	1.03	0.729	0.452	0.196
EPLC-272H	0.336	0.213	0.211	0.235	0.112	0.344	0.327	0.318	0.315	0.308	0.35	0.36	0.272	0.149	0.0954	0.89	1.15	0.669	0.958	0.526
H3255	0.631	0.605	0.577	0.238	0.249	0.541	0.619	0.564	0.536	0.404	0.356	0.448	0.426	0.332	0.327	0.831	0.777	0.516	0.591	0.383
HARA	0.149	0.112	0.127	0.0757	0.0743	0.235	0.309	0.25	0.261	0.232	0.297	0.322	0.251	0.186	0.104	1.04	1.29	1.11	0.995	0.235
HCC-15	0.386	0.348	0.367	0.23	0.122	0.213	0.222	0.218	0.183	0.171	0.613	0.559	0.515	0.0886	0.177	0.959	1.04	1.13	0.67	0.157
HCC-44	0.759	0.886	1.11	0.57	0.317	0.64	0.684	0.801	0.64	0.601						1.01	0.905	1.02	0.781	0.418
HCC-78	0.375	0.488	0.988	0.264	0.184	0.901	0.954	0.84	0.916	0.906	0.326	0.548	0.366	0.287	0.285	0.487	0.5	0.35	0.314	0.229
HCC-366	0.0819	0.087	0.0918	0.0736	0.0452	0.174	0.182	0.272	0.157	0.0669	0.504	0.412	0.444	0.0996	0.0443	1.04	1.03	0.518	0.135	0.0399

Cell Line	relative viability (Etoposide + Tozasertib; first compound 0.01 µM)	relative viability (Etoposide + Tozasertib; first compound 0.03162 µM)	relative viability (Etoposide + Tozasertib; first compound 0.1 µM)	relative viability (Etoposide + Tozasertib; first compound 0.3162 µM)	relative viability (Etoposide + Tozasertib; first compound 1 µM)	relative viability (Etoposide + Pemetrexed; first compound 0.01 µM)	relative viability (Etoposide + Pemetrexed; first compound 0.03162 µM)	relative viability (Etoposide + Pemetrexed; first compound 0.1 µM)	relative viability (Etoposide + Pemetrexed; first compound 0.3162 µM)	relative viability (Etoposide + Pemetrexed; first compound 1 µM)	relative viability (Bleomycin + Dasatinib; first compound 0.01 µM)	relative viability (Bleomycin + Dasatinib; first compound 0.03162 µM)	relative viability (Bleomycin + Dasatinib; first compound 0.1 µM)	relative viability (Bleomycin + Dasatinib; first compound 0.3162 µM)	relative viability (Bleomycin + Dasatinib; first compound 1 µM)	relative viability (Etoposide + Bortezomib; first compound 0.01 µM)	relative viability (Etoposide + Bortezomib; first compound 0.03162 µM)	relative viability (Etoposide + Bortezomib; first compound 0.1 µM)	relative viability (Etoposide + Bortezomib; first compound 0.3162 µM)	relative viability (Etoposide + Bortezomib; first compound 1 µM)
HCC-827	0.388	0.453	0.433	0.192	0.173	0.262	0.266	0.127	0.236	0.192	0.228	0.24	0.338	0.245	0.225	1.09	1.06	1.07	0.803	0.458
IA-LM																0.821	0.929	0.466	0.837	0.522
LK-2	0.207	0.175	0.18	0.21	0.205	0.36	0.315	0.208	0.224	0.186	0.209	0.193	0.248	0.176	0.169					
NCI-H358	0.112	0.107	0.107	0.0887	0.0917	0.179	0.186	0.178	0.168	0.157	0.183	0.165	0.176	0.107	0.156					
NCI-H522	0.589	0.554	0.539	0.59	0.516	0.896	1.22	0.784	0.877	1	0.791	0.716	0.518	0.43	0.328					
NCI-H727	0.623	0.677		0.605	0.692						0.466	0.345	0.325		0.293	0.764	1.07	0.536	0.857	0.659
NCI-H1299																1.03	0.999	1.11	0.957	0.821
NCI-H1395	0.616	0.758	0.665	0.74	0.592	0.765	0.894	0.758	0.823	0.599	0.377	0.413	0.379	0.412	0.381					
NCI-H1563						0.693	0.806	0.547	0.425	0.371	0.439	0.452	0.438	0.401	0.47	0.802	0.866	0.781	0.618	0.605
NCI-H1623	0.416	0.392	0.349	0.396	0.259						0.561	0.557	0.521	0.347	0.273					
NCI-H1648		0.359	0.416	0.282	0.28		0.859	0.732	0.798	0.581										
NCI-H1703																0.433	0.519	0.294	0.22	0.198
NCI-H1792						0.743	0.768		0.616	0.229	0.698	0.805	1.01	0.439	0.283	0.899	0.878	0.819	0.897	0.581
NCI-H1793	0.324	0.311		0.316	0.185		0.97	0.458	0.629	0.226	0.382	0.427	0.329	0.17	0.115					
NCI-H1944	0.258	0.278	0.211	0.182	0.168	0.591	0.797	0.396	0.44	0.189	0.173	0.177	0.159	0.115	0.106					
NCI-H2170	0.634	0.778	0.522	0.593	0.526	0.285	0.26		0.261	0.252	0.504	0.599	0.638	0.285	0.389					
NCI-H2342	0.528	0.512	0.379	0.315	0.272	0.861	0.866	0.472	0.421	0.291	0.311	0.335	0.339	0.274	0.277					
SK-MES-1	0.877	0.807	0.833	0.389	0.222	0.912	1.02	0.844	0.708	0.256	0.329	0.316	0.232	0.0893	0.0963					
SW 900	0.459	0.666	0.55	0.341	0.224	0.419	0.543	0.522	0.47	0.204	0.48	0.418	0.241	0.147	0.134					
